Experimental data from US20250034116A1, “1,4-DIHETEROCYCLIC SUBSTITUTED AROMATIC RING OR AROMATIC HETEROCYCLIC COMPOUND AND USE THEREOF” (BeBetter Med Inc., priority 2022, published 2025).

Assays:
[1] = tested on: CYP enzymes in human liver microsomes (HLM); test: Inhibition of 20-HETE production in human liver microsomes (HLM); format: biochemical
Procedure: (§1) Experimental principle: The inhibitory activity of 20-HETE production is evaluated by testing the inhibitory effects of the compound on human liver microsomes (HLM), rat liver microsomes (RLM), mouse liver microsomes (MLM), or […] CYP4 subtype enzymes (CYP4F2). This assay employs HLM, RLM, or MLM along with recombinant CYP4F2 (rCYP4F2) and recombinant CYP4A11 (rCYP4A11), which are […] CYP4 subtype enzymes, to detect the effects of the test compound at different concentrations on the metabolic rate of enzyme-specific substrates, to determine the inhibitory effects of the test compound on CYP enzymes in HLM, RLM, or MLM.
(§2) Experimental methods: Dissolve the test compound in DMSO, and subsequently dilute it with an acetonitrile and DMSO mixture (3:1). Add 2 μl of varying concentrations of the test compound and 100 μl of potassium phosphate buffer containing either liver microsomes or recombinant enzymes to a 96-well plate. After mixing well, transfer 30 μl to another well (in duplicate), add 15 μl of 400 μM substrate solution, and mix well again. Preheat at 37° C. for 10 minutes, and then add 15 μl of 6 mM NADPH and incubate at 37° C. for 25 minutes. After 25 minutes, add 160 μl of acetonitrile solution (containing 0.1 μg/ml internal standard) to stop the reaction. Mix well, centrifuge at 3500 g for 15 minutes, and then analyze the supernatant using LC-MS/MS.
(§3) Plot the compound concentration on the x-axis and the inhibition rate on the y-axis to draw the curve. Use GraphPad Prism 5 software to fit the curve and calculate the IC50. The formula is Y=Bottom+(Top−Bottom)/(1+10^((Log IC50−X)×HillSlope)). X represents the logarithmic concentration of the inhibitor, and Y represents the relative enzyme activity at a given inhibitor concentration (relative to the condition without the inhibitor).
(§4) Calculate the inhibition percentages at concentrations of 1000 nM, 500 nM, or 100 nM as well as the half-maximal inhibitory concentration (IC50) of the test compound from the above experiment.

[2] = tested on: CYP enzymes in rat liver microsomes (RLM); test: Inhibition of 20-HETE production in rat liver microsomes (RLM); format: biochemical
Procedure: as §1, §2, §3, §4

Structure (SMILES) | IC50 [1] [nM] | HLM (% inh @ 500 nM) [1] [%] | IC50 [2] [nM] | RLM (% inh @ 500 nM) [2] [%]
O=C(Nc1ccc(F)cc1)C1CCN(c2ccc(-c3cn[nH]c3)cc2)CC1 [Compound 61, 1-(4-(1H-pyrazol-4-yl)phenyl)-N-(4-fluorophenyl)piperidine-4-carboxamide] | 17.6 | 85.27 | 60.5 | 
O=C(NCc1ccccc1)C1CCN(c2ccc(-c3cn[nH]c3)c(F)c2F)CC1 [Compound 95, N-benzyl-1-(2,3-difluoro-4-(1H-pyrazol-4-yl)phenyl)piperidine-4-carboxamide] | 19.4 | 94.96 | 341 | 61.73
C[C@@H]1CN(C(=O)N2CCCC2)CCN1c1ccc(-c2cn[nH]c2)c(F)c1F [Compound 104, (R)-(4-(2,3-difluoro-4-(1H-pyrazol-4-yl)phenyl)-3-methylpiperazin-1-yl)(pyrrolidin-1-yl) methanone] |  | 78.18 |  | 73.19
O=C(C1CCCC1)N1CCC(c2ccc(-c3cn[nH]c3)cc2F)CC1 [Compound 138, cyclopentyl(4-(2-fluoro-4-(1H-pyrazol-4-yl)phenyl)piperidin-1-yl) methanone] |  | 92.84 |  | 77.16
c1cc(N2CCC(CN3CCCC3)CC2)ccc1-c1cn[nH]c1 [Compound 40, 1-(4-(1H-pyrazol-4-yl)phenyl)-4-(pyrrolidin-1-ylmethyl)piperidine] |  | 52.40 |  | 26.22
O=C1CCCN1CC1CCN(c2ccc(-c3cn[nH]c3)cc2CO)CC1 [Compound 17, 1-((1-(2-(hydroxymethyl)-4-(1H-pyrazol-4-yl)phenyl)piperidin-4-yl)methyl)pyrrolidin-2-one] |  | 65.27 |  | 17.66
O=C(C1CCC(F)(F)CC1)N1CCC(c2ccc(-c3cn[nH]c3)c(F)c2F)CC1 [Compound 101, (4-(2,3-difluoro-4-(1H-pyrazol-4-yl)phenyl)piperidin-1-yl)(4,4-difluorocyclohexyl) methanone] |  | 78.37 |  | 69.34
C=CCCCCCC(=O)NCC1CCN(c2ccc(-c3cn[nH]c3)cc2)CC1 [Compound 115, N-((1-(4-(1H-pyrazol-4-yl)phenyl)piperidin-4-yl)methyl)oct-7-enamide] | 20.8 | 85.21 | 26.2 | 
O=C1CCCN1CC1CCN(c2cc(F)c(-c3cn[nH]c3)cc2F)CC1 [Compound 6, 1-((1-(2,5-difluoro-4-(1H-pyrazol-4-yl)phenyl)piperidin-4-yl)methyl)pyrrolidin-2-one] |  | 67.30 |  | 23.02
C#CCCCCCC(=O)NCC1CCN(c2ccc(-c3cn[nH]c3)cc2)CC1 [Compound 114, N-((1-(4-(1H-pyrazol-4-yl)phenyl)piperidin-4-yl)methyl)oct-7-ynamide] |  | 85.59 |  | 54.89
O=C(Cc1ccccc1)N1CCC(c2ccc(-c3cn[nH]c3)c(F)c2F)CC1 [Compound 111, 1-(4-(2,3-difluoro-4-(1H-pyrazol-4-yl)phenyl)piperidin-1-yl)-2-phenylethan-1-one] |  | 82.17 |  | 84.99
O=C(NC1CCN(c2ccc(-c3cn[nH]c3)cc2)CC1)C1CCCC1 [Compound 69, N-(1-(4-(1H-pyrazol-4-yl)phenyl)piperidin-4-yl)cyclopentanecarboxamide] |  | 76.97 |  | 43.82
O=Cc1cc(-c2cn[nH]c2)ccc1N1CCC(CN2CCCC2=O)CC1 [Compound 15, 2-(4-((2-oxopyrrolidin-1-yl)methyl)piperidin-1-yl)-5-(1H-pyrazol-4-yl)benzaldehyde] |  | 64.22 |  | 12.62
O=S(=O)(C1CCCCC1)N1CCC(c2ccc(-c3cn[nH]c3)cc2F)CC1 [Compound 119, 1-(cyclohexylsulfonyl)-4-(2-fluoro-4-(1H-pyrazol-4-yl)phenyl)piperidine] |  | 87.83 | 116 | 75.79
CCCCCCC(=O)NCC1CCN(c2ccc(-c3cn[nH]c3)cc2)CC1 [Compound 44, N-((1-(4-(1H-pyrazol-4-yl)phenyl)piperidin-4-yl)methyl) heptylamide] | 25.2 | 85.05 | 33.8 | 
O=C1N(CC2CCN(c3ccc(-c4cn[nH]c4)cc3)CC2)CCC12CCCCC2 [Compound 31, 2-((1-(4-(1H-pyrazol-4-yl)phenyl)piperidin-4-yl)methyl)-2-azaspiro[4.5]decan-1-one] |  | 68.02 |  | 14.73
COC(=O)c1cc(-c2cn[nH]c2)ccc1N1CCC(CN2CCCC2=O)CC1 [Compound 18, methyl 2-(4-((2-oxopyrrolidin-1-yl)methyl)piperidin-1-yl)-5-(1H-pyrazol-4-yl)benzoate] |  | 47.87 |  | 8.61
O=C(C1CCN(c2ccc(-c3cn[nH]c3)cc2)CC1)N1CC2(CCC2)C1 [Compound 67, (1-(4-(1H-pyrazol-4-yl)phenyl)piperidin-4-yl)(2-azaspiro[3.3]heptane-2-yl) methanone] |  | 55.57 |  | 30.84
O=C1CCCN1CCC1CCN(c2ccc(-c3cn[nH]c3)cc2)CC1 [Compound 48, 1-(2-(1-(4-(1H-pyrazol-4-yl)phenyl)piperidin-4-yl)ethyl)pyrrolidin-2-one] |  | 73.42 |  | 39.97
O=C(N1CCCCC1)N1CCN(c2ccc(-c3cn[nH]c3)c(F)c2F)CC1 [Compound 88, (4-(2,3-difluoro-4-(1H-pyrazol-4-yl)phenyl)piperazin-1-yl)(piperidin-1-yl) methanone] |  | 78.05 |  | 68.94
O=C(NCC1CCCC1)N1CCN(c2ccc(-c3cn[nH]c3)c(F)c2F)CC1 [Compound 92, N-(cyclopentylmethyl)-4-(2,3-difluoro-4-(1H-pyrazol-4-yl)phenyl)piperazine-1-carboxamide] | 26.4 | 94.83 |  | 77.48
O=C1CCCN1CC1CCN(c2ccc(-c3cn[nH]c3)cc2C(F)(F)F)CC1 [Compound 10, 1-((1-(4-(1H-pyrazol-4-yl)-2-(trifluoromethyl)phenyl)piperidin-4-yl)methyl)pyrrolidin-2-one] | 46.1 |  | 542 | 
O=C(NC1CCCC1)C1CCN(c2ccc(-c3cn[nH]c3)cc2)CC1 [Compound 55, 1-(4-(1H-pyrazol-4-yl)phenyl)-N-cyclopentylpiperidine-4-carboxamide] |  | 62.73 |  | 21.92
O=C1CCC(=O)N1CC1CCN(c2ccc(-c3cn[nH]c3)cc2)CC1 [Compound 28, 1-((1-(4-(1H-pyrazol-4-yl)phenyl)piperidin-4-yl)methyl)pyrrolidine-2,5-dione] |  | 55.98 |  | 16.98
O=C(C1CCN(c2ccc(-c3cn[nH]c3)cc2)CC1)N1CCOCC1 [Compound 50, (1-(4-(1H-pyrazol-4-yl)phenyl)piperidin-4-yl)(morpholinyl) methanone] |  | 57.59 |  | 14.48
